Test results reported in patent US20070122903A1, “AMNIOTIC FLUID DERIVED CELLS” (priority 2005, published 2007).

How the values were obtained:
Type in all cases: cell-based, human
[1] = test system: cell line AFCA004 (E morphology); test: Treatment with PANC-1 conditioned medium in combination with growth factors, real-time PCR; details: PANC-1 conditioned medium plus growth factor; for somatostatin expression: after 14 days treatment
Protocol: Amniotic fluid-derived cells were obtained from a single donor and cultured for 12 days in conditioned media that was obtained from cultures of PANC-1 cells. The media was supplemented with the growth factors indicated. The levels of expression of HNF-3 beta and somatostatin were determined by real-time PCR. Human pancreas total RNA was included as a calibrator.
Cells from the cell line AFCA004 (E morphology) at passage 6 were seeded at 5×10^5 cells per well of 6-well culture plates and treated with conditioned medium from confluent PANC-1 cells (ATCC, VA) in combination with different growth factors. Basic FGF, EGF and combination of bFGF and EGF enhanced the expression of HNF-3 beta ˜100 fold over untreated cells. Basic FGF, EGF and BMPs also stimulated somatostatin expression after 14 days treatment (FIG. 16, panels a&b).

[2] = test system: Hes-1 expression (Notch pathway) in cell line AFCA007 (AF-I); test: Hes-1 expression by real-time PCR after notch pathway inhibition; details: range of concentrations, 3 to 5 days
Protocol: (§1) Cells were treated for three days, at the concentrations indicated. Changes in viability, corresponding to cytotoxicity were detected using an MTS assay, where a decrease in cell viability corresponds to a decrease in A490 nm.
(§2) Cells from the cell line AFCA007 (AF-I) at passage 8 were treated with a range of concentrations of the notch pathway inhibitor L-685,458 (Sigma, MO) for 3 to 5 days. The cytotoxcity of L-685,458 was determined by measuring cell viability by a MTS assay (Promega, WI). Real-time PCR analysis was performed to analyze Hes-1 expression after the treatment. […] No effect on cell viability, as determined by the MTS assay, was observed following L-685,458 treatment of up to 10 μM for 5 days (FIG. 17, panel b).

[3] = test system: cell line AFCA007 Clone A (AF-I); test: Differentiation of cells into multiple endocrine lineages (collagen type I/matrigel transwell culture with growth factors); details: 14 days, DMEM + 5% FBS
Protocol: Cells from the cell line AFCA007 Clone A (AF-I) at passage 8 were embedded in collagen type I (Becton Dickinson, CA) with 1% growth-factor reduced matrigel matrix (Becton Dickinson), and seeded into 6-well transwell insert at 5×10^5 cells per well. The bottom well was seeded with human aortic endothelial cells passage 6 (Cambrex. MD). Cells were cultured with DMEM medium supplemented with 5% FBS and growth factors, which includes Cyclopamine, bFGF, EGF, BMP4-7, Activin A, Exendin 4, FGF4, all-trans retinoic acid and γ-secretase inhibitors for 14 days. Cultures were fed every other day. […] Treatment of cells with BMPs at high concentration, 50 ng/ml, also up-regualted the GATA4 expression.

cell line AFCA007 (AF-I) = test: Cytotoxicity by MTS cell viability assay; details: up to 10 μM for 5 days
Protocol: as §1, §2

Row | Compound | expression of HNF-3 beta over untreated cells [1] [fold] | somatostatin expression [1] | further results
1 | Basic FGF: growth factor combined with PANC-1 conditioned medium | ~100 | stimulated | –
2 | CC(C)C[C@H](NC(=O)[C@H](Cc1ccccc1)C[C@@H](O)[C@H](Cc1ccccc1)NC(=O)OC(C)(C)C)C(=O)N[C@@H](Cc1ccccc1)C(N)=O [L-685,458] | – | – | Hes-1 expression [2]: dose-dependent inhibitory effect; expression of HNF-3 beta [3]: up-regulated; cell viability (MTS assay) (cell line AFCA007 (AF-I)): No effect
3 | CC1=C(/C=C/C(C)=C/C=C/C(C)=C/C(=O)O)C(C)(C)CCC1 [all-trans retinoic acid, reference compound] | – | – | alpha-fetoprotein (AFP) expression [3]: up-regulation
4 | EGF: epidermal growth factor combined with PANC-1 conditioned medium (NSDSECPLSHDGYCLHDGVCMYIEALDKYACNCVVGYIGERCQYRDLKWWELR; Epidermal growth factor; UniProt P01133 971-1023, looked up) | ~100 | stimulated | –
